In US10493061B2, “Compositions and methods comprising 2-(acylamino)imidazoles” (priority 2014, dated 2019):
“Also recorded” adds a separate entry of the source.

How the values were obtained:
[1] = test system: metal trafficking genes (MT1F, MT1X, MT2A, SLC30A1, SLC30A2) in MCF-7 cells; assay: Transcriptome sequencing (RNA-seq); conditions: 30 μM ZNA, 3 hours, sustained at 12 hours
[2] = test system: transplanted PyMT mammary tumors; assay: Mouse mammary tumor model (transplanted PyMT tumors), Kaplan-Meier survival; assay type: in vivo
Method: In vivo ZNA studies: Mouse studies were conducted with the approval of an institutional animal care and use committee. FVB/NJ mice were obtained from The Jackson Laboratory (Bar Harbor, Me., USA). In preparation for the in vivo study, EF1α-PyMT mouse mammary tumors were generated in donor mice and the tumors resected and prepared as single cells as described previously by Smith et al. (6). These cells were suspended in Matrigel (BD Biosciences) and injected (50,000 cells per 10 μL injection) into the uncleared mammary fat pad of 3-week old female recipient FVB/NJ mice. Twenty-one days following the transplant, the mice were randomized, and drug treatment was initiated; the mice were treated once a day for 21 days, and a tumor diameter ≥2 cm was established as an endpoint. ZNA (100 mg/kg) or the matched vehicle control was administered to each mouse via a 200-μL intraperitoneal injection of ZNA diluted into DMSO, then diluted into phosphate buffered saline to a final DMSO concentration of 5%. ZnSO4 was administered continuously for the 21-day treatment period to the appropriate groups via drinking water (25 mM ZnSO4.7H2O).
Statistics: The student's t-test (unpaired) was used to assess statistical significance and a p≤0.05 was considered statistically significant. Statistical significance between Kaplan-Meier survival curves was measured by the Mantel-Cox test using Prism 6.0 (GraphPad Software). The following P-values were used to annotate statistical significance: p≤0.05=*; p≤0.01=**; p≤0.001=***.
Next, the efficacy of the compound was tested in an in vivo tumor model. […] Mice were treated once a day for 21 days, and four treatment conditions were assessed: ZNA (100 mg/kg administered via intraperitoneal), ZnSO4 (25 mM administered continuously for the duration of treatment via drinking water), a combination of ZNA and ZnSO4, and a control group (PBS administered via intraperitoneal injection); a tumor diameter greater than 2 cm was established as an endpoint.

[3] = test system: MCF-10A normal mammary epithelial cell line; assay: Cell viability (ATP quantification) with exogenously added transition metals
Method: Three breast cancer cell lines (MCF-7, T47D, and MDA-MB-231) and a normal mammary epithelial cell line (MCF-10A) were treated with 30 μM ZNA in conjunction with 30 M CuSO4, ZnSO4, Fe(III)Cl3, Fe(II)SO4, NiSO4, MnCl2, or CoCl2 for 48 hours; following the completion of treatment, cell viability was measured using an ATP quantification assay (FIG. 2A).

Structure (SMILES): COc1ccc(-c2c(Cc3ccccc3)[nH]/c(=N\C(=O)c3ccccc3F)n2C)cc1 [ZNA, (E)-N-(4-benzyl-5-(4-methoxyphenyl)-1-methyl-1H-imidazol-2(3H)-ylidene)-2-fluorobenzamide]
- metallothionein gene expression (MT1F, MT1X, MT2A) [1]: increased metallothionein gene expression
- survival ([2]; ZNA 100 mg/kg ip once a day for 21 days, vs control-treated group): statistically significant survival advantage
- survival ([2]; ZNA 100 mg/kg ip once a day with 25 mM ZnSO4 in drinking water, 21 days, vs ZnSO4-only group): statistically significant survival advantage
- general toxicity, adverse reactions, body weight ([2]; mice, ZNA 100 mg/kg alone or with ZnSO4): no general toxicity, adverse reactions, or decreases in body weight were observed; also recorded: without detrimental effects on mouse weight and health
- cell viability ([3]; 30 μM ZNA with CuSO4, 48 hours): significant reduction in cell viability
- cell viability ([3]; 30 μM ZNA with ZnSO4, 48 hours): only a partial reduction in cell number
